Source: PubChem BioAssay (NCI)
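The compound was tested at five concentrations on cells cultured in 96-well plates, with a 48-hour exposure period. At the TGI there is no net growth.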

Columns and labels:
Experiment in all cases: NCI-60 cell line screen, 48 h
[1] = test system: A498 renal
[2] = test system: MDA-MB-231 breast
[3] = test system: MOLT-4 leukemia
[4] = test system: OVCAR-5 ovarian
[5] = test system: SK-MEL-5 melanoma
[6] = test system: HS 578T breast
[7] = test system: TK-10 renal
[8] = test system: SK-MEL-28 melanoma
[9] = test system: CCRF-CEM leukemia
[10] = test system: OVCAR-3 ovarian
[11] = test system: SN12C renal
[12] = test system: RPMI-8226 leukemia
[13] = test system: NCI/ADR-RES ovarian
[14] = test system: MCF7 breast
[15] = test system: HT29 colon
[16] = test system: HOP-92 NSCLC
[17] = test system: SW-620 colon
[18] = test system: SR leukemia
[19] = test system: COLO 205 colon
[20] = test system: NCI-H460 lung

Row | SMILES | TGI [1] [µM] | TGI [2] [µM] | TGI [3] [µM] | TGI [4] [µM] | TGI [5] [µM] | TGI [6] [µM] | TGI [7] [µM] | TGI [8] [µM] | TGI [9] [µM] | TGI [10] [µM] | TGI [11] [µM] | TGI [12] [µM] | TGI [13] [µM] | TGI [14] [µM] | TGI [15] [µM] | TGI [16] [µM] | TGI [17] [µM] | TGI [18] [µM] | TGI [19] [µM] | TGI [20] [µM]
1 | CN(Cc1cnc2nc(N)nc(N)c2n1)c1ccc(C(=O)NCCCC(=O)O)cc1 | > 100 | > 100 | > 100 | > 100 | > 100 | > 100 | > 100 | > 100 | > 100 | > 100 | > 100 | > 100 | > 100 | > 100 | > 100 | > 100 | > 100 | > 100 | > 100 | > 100
2 | COc1ccc(C=O)cc1OS(=O)(=O)C(F)(F)C(F)(F)C(F)(F)C(F)(F)F | > 68.2 | > 70.3 | > 20 | > 100 | 30.8 | 68.8 | > 82.9 | 97.5 | 63.1 | > 69.2 | 97.5 | 54.3 | 58.3 | > 100 | > 90.5 | 58.6 | > 87.4 | > 24.4 | 62.4 | > 93.4
3 | C/C(=N\O)c1cccc(Nc2c3ccccc3nc3occc23)c1 | > 100 | > 100 | > 100 | > 100 | > 100 | 55.3 | 44.3 | 25.6 | > 100 | 80.1 | > 100 | > 100 | > 100 | 34 | 95.7 | 47.9 |  | > 100 | > 100 | > 100
4 | COC(=O)c1c2c(cc3c1CC1(C3)Cc3cc4c(c(C(=O)OC)c3C1)CCC4)CCC2 | > 100 | > 100 | > 100 | > 100 | > 100 | > 100 | > 100 |  | > 100 | > 100 | > 100 | > 100 | > 100 | > 100 | > 100 | > 100 |  | > 100 | > 100 | 
5 | N=c1oc2cc(O)ccc2cc1C(=O)Nc1cccc2ccccc12 | 18.7 | 10.1 | > 35.4 | 36.3 | 15.8 | > 100 | 7.68 | 34.4 | > 20.4 | > 27.9 | 18.9 | > 100 | 4.43 | 17.8 | 26.9 | 14.5 | 45.9 | 7.83 | 34.6 | 30.2
6 | Cc1c(C#N)c2nc3ccccc3n2c(=O)/c1=C/Nc1ccc(Cl)cc1 | 72.5 | 77.9 | > 100 | > 100 | > 100 | 54.5 | 35.7 | > 100 |  |  | > 100 | > 100 | > 100 | > 100 | > 100 | 67.5 | > 100 | > 100 | > 100 | > 100
7 | CC/C=C\C=C/C(=O)N/C=C/CCC | > 100 | > 100 | 95.6 | > 100 |  | > 100 | > 100 | > 100 | > 100 | > 100 | > 100 | > 100 | > 100 | > 100 | > 100 | > 100 | > 100 | > 100 |  | > 100
8 | CN1CCc2c(sc3ncn(Nc4ccc(F)cc4)c(=N)c23)C1 | > 100 | > 100 | > 100 | > 100 | > 100 | > 100 | > 100 | > 100 | > 100 | > 100 | > 100 | > 100 | > 100 | > 100 | > 100 | > 100 | > 100 | > 100 |  | > 100
9 | Cn1c(=O)cc(Nc2ccc(N)cc2)[nH]c1=O | > 100 | > 100 | > 100 | > 100 | > 100 | > 100 | > 100 | > 100 | > 100 | > 100 | > 100 | > 100 | > 100 | > 100 | > 100 | > 100 | > 100 | > 100 | > 100 | > 100
10 | COCCCNc1c2ccccc2nc2ccccc12 | 15.2 | 12.5 | > 100 | 6.93 | 4.51 | 9.32 | 89.8 | 6.54 | 60.6 | 7.55 | 15.1 |  | 33.6 | 5.27 | 51.8 | 12.5 | 12.6 | 12.1 | 6.73 | 3.55
11 | COc1ccc(Nc2cc(=O)[nH]c(=O)[nH]2)cc1 | > 100 | > 100 | > 100 | > 100 | > 100 | > 100 | > 100 | > 100 | > 100 | > 100 | > 100 | > 100 | > 100 | > 100 | > 100 | > 100 | > 100 | > 100 | > 100 | > 100
12 | Cc1ccc(-c2cc(=O)c(=O)[nH][nH]2)cc1 | > 100 | > 100 | > 100 | > 100 | > 100 | > 100 | > 100 | > 100 | > 100 | > 100 | > 100 |  | > 100 | > 100 | > 100 | > 100 | > 100 | > 100 | > 100 | > 100
13 | c1ccc(/C(=N/Nc2ccccn2)c2cccnn2)cc1 | > 100 | > 75.5 | 27.1 | > 100 | 52.3 | > 79 | > 100 | > 100 |  | > 100 | 40.7 | 17 | 13.2 | > 93.4 | > 58.8 | > 39.5 | > 78.8 | > 20.8 | > 100 | > 100
